Reference: US20100063273A1, “NOVEL CRYSTAL OF PIPERACILLIN SODIUM” (Toyama Chemical Co., Ltd, priority 2007, published 2010)

How the values were obtained:
Type in all cases: physicochemical
Dissolution test = conditions: for Dissolution compared with the amorphous body: result in words; for Dissolution time: 2.2 g in injectable water 10 mL, shaken, complete dissolution by unaided eye, mean of three, sodium monohydrate
Experimental: (§1) As test substances, the V type crystal (Example 1), the VI type crystal (Example 2) and the amorphous body (Comparative example 1) were used.
Test substance 2.2 g was put in a C2 vial made by Daiichi Glass Co., Ltd., injectable water 10 mL was added to the vial, the vial was fixed laterally and was shaken by MRK incubator-shaker (4 cm of shaking width, 48 times/minute of shaking rate).
Complete dissolution was judged by an unaided eye, and the length of time to need for the complete dissolution was measured.
The test was carried out at three times respectively, and those mean values were assumed to the dissolution time.

Hygroscopic test = conditions: for Hygroscopic (moisture absorption) stability compared with the amorphous body: result in words; for Ratio of change of weight: 25° C., three days
Experimental: as §1
Test substances were allowed to stand at 25° C. for three days under 7, 11, 22, 33 and 57% relative humidity, the content of moisture was measured according to Japanese pharmacopoeia, general tests, water determination method (Karl Fischer's method) and the changes of weight were calculated.

[1] = Purity stability test (storage at 60° C.); conditions: for Purity stability: 60° C. storage, result in words
Experimental: as §1
Test substance 2.2 g was put in a C2 vial made by Daiichi Glass Co., Ltd., and after the vial was filled with nitrogen gas, the vial was stored at 60° C. After the initiation of the test, the purity of each test substances was measured by high-performance liquid chromatographic method at 1 week, 2 weeks and 4 weeks later (a notice of the 340th Apr. 4, 2001 by Ministry of Health and Welfare medicinal safe directors of bureaus).

[2] = Coloration stability test (storage at 60° C.); conditions: for Coloration stability of exterior appearance: 60° C. storage, result in words
Experimental: as §1
Test substance 2.2 g was put in a C2 vial made by Daiichi Glass Co., Ltd., and after the vial was filled with nitrogen gas, the vial was stored at 60° C. After the initiation of the test, the color difference (ΔE), degree of whiteness (W) and yellowness (YI) of each test substances were measured by a color-difference meter at 1 week, 2 weeks and 4 weeks later.

[3] = Light exposure stability test; conditions: for By-product I / Piperacillin / Total amount of relative substances: Initiation of test
Experimental: As test substances, the VI type crystal (Example 2) and the amorphous body (Comparative example 1) were used.
Test substance 2.2 g was put in a C2 vial made by Daiichi Glass Co., Ltd., and after the vial was filled with nitrogen gas, the vial was radiated ([…] 1×/hr) with D65 lamp (FLR20S-D-EDL-D65/M) at 25° C.
After the initiation of the test and the radiation of […] 1×/hr, the purity of each test substances was measured by high-performance liquid chromatographic method (a notice of the 340th Apr. 4, 2001 by Ministry of Health and Welfare medicinal safe directors of bureaus).

[4] = Light exposure stability test; conditions: D65 lamp, 25° C., 1.20 million lx·hr
[5] = 60° C., 1 week, nitrogen-filled vial
[6] = 60° C., 2 weeks, nitrogen-filled vial
[7] = 60° C., 4 weeks, nitrogen-filled vial
[8] = 7% relative humidity, sodium monohydrate
[9] = 11% relative humidity, sodium monohydrate
[10] = 22% relative humidity, sodium monohydrate
[11] = 33% relative humidity, sodium monohydrate
[12] = 57% relative humidity, sodium monohydrate
[13] = 60° C., 1 week, nitrogen-filled vial, sodium monohydrate
[14] = 60° C., 2 weeks, nitrogen-filled vial, sodium monohydrate
[15] = 60° C., 4 weeks, nitrogen-filled vial, sodium monohydrate
[16] = Initiation of test, sodium monohydrate
[17] = 60° C., 1 week, sodium monohydrate
[18] = 60° C., 2 weeks, sodium monohydrate
[19] = 60° C., 4 weeks, sodium monohydrate

For CCN1CCN(C(=O)N[C@@H](C(=O)N[C@@H]2C(=O)N3[C@@H]2SC(C)(C)[C@@H]3C(=O)O)c2ccccc2)C(=O)C1=O [III type crystal, piperacillin sodium monohydrate], the “Dissolution compared with the amorphous body” value (Dissolution test) was “dissolved in a short period of time than the amorphous body” and the “Hygroscopic (moisture absorption) stability compared with the amorphous body” value (from here on “Hygroscopic … compared with the amorphous body”) (Hygroscopic test; sodium monohydrate) was “superior in hygroscopic stability to the amorphous body”.

With CCN1CCN(C(=O)N[C@@H](C(=O)N[C@@H]2C(=O)N3[C@@H]2SC(C)(C)[C@@H]3C(=O)[O-])c2ccccc2)C(=O)C1=O.[Na+] [Comparative example 1, piperacillin sodium] the “Ratio of change of weight” value (Hygroscopic test; 7% relative humidity) was 2.20 w/w %, the “Ratio of change of weight” value (Hygroscopic test; 11% relative humidity) was 3.12 w/w % and the “Ratio of change of weight” value (Hygroscopic test; 22% relative humidity) was 4.99 w/w %. The “Ratio of change of weight” value (Hygroscopic test; 33% relative humidity) was 6.78 w/w %, the “Ratio of change of weight” value (Hygroscopic test; 57% relative humidity) was 11.03 w/w % and the “By-product I” value [1, 5] was 0.80. The “Decomposition product I” value [1, 5] was 0.13, the Piperacillin [1, 5] was 98.27 and the “By-product I” value [1, 6] was 0.97. For the same compound, the “Decomposition product I” value [1, 6] was 0.17, the Piperacillin [1, 6] was 98.05 and the “By-product I” value [1, 7] was 1.21. For the same compound, the “Decomposition product I” value [1, 7] was 0.30, the Piperacillin [1, 7] was 97.04 and the “By-product I” value ([1]; Initiation of test) was 0.22. For the same compound, the “Decomposition product I” value ([1]; Initiation of test) was 0.01, the Piperacillin ([1]; Initiation of test) was 99.51 and the “Color difference (ΔE)” value ([2]; 60° C., 1 week) was 2.76. For the same compound, the “Degree of whiteness (W)” value ([2]; 60° C., 1 week) was 94.66, the “Degree of yellowness (YI)” value ([2]; 60° C., 1 week) was 6.51 and the “Color difference (ΔE)” value ([2]; 60° C., 2 weeks) was 4.27. For the same compound, the “Degree of whiteness (W)” value ([2]; 60° C., 2 weeks) was 93.29, the “Degree of yellowness (YI)” value ([2]; 60° C., 2 weeks) was 8.97 and the “Color difference (ΔE)” value ([2]; 60° C., 4 weeks) was 5.73. The “Degree of whiteness (W)” value ([2]; 60° C., 4 weeks) was 91.87, the “Degree of yellowness (YI)” value ([2]; 60° C., 4 weeks) was 11.25 and the “Degree of whiteness (W)” value ([2]; Initiation of test) was 96.86. The “Degree of yellowness (YI)” value ([2]; Initiation of test) was 2.17, the “By-product I” value [3] was 0.23 and the Piperacillin [3] was 99.10. The “Total amount of relative substances” value [3] was 0.90, the “By-product I” value [4] was 0.31 and the Piperacillin [4] was 98.86. For the same compound, the “Total amount of relative substances” value [4] was 1.14.

For CCN1CCN(C(=O)N[C@@H](C(=O)N[C@@H]2C(=O)N3[C@@H]2SC(C)(C)[C@@H]3C(=O)O)c2ccccc2)C(=O)C1=O [Example 1, piperacillin sodium monohydrate], the Dissolution time (Dissolution test) was 43 s, the “Dissolution compared with the amorphous body” value (Dissolution test) was “dissolved in a short period of time than the amorphous body” and the “Ratio of change of weight” value (Hygroscopic test; [8]) was 0 w/w %. For the same compound, the “Ratio of change of weight” value (Hygroscopic test; [9]) was 0.93 w/w %, the “Ratio of change of weight” value (Hygroscopic test; [10]) was 3.18 w/w % and the “Ratio of change of weight” value (Hygroscopic test; [11]) was 4.77 w/w %. The “Ratio of change of weight” value (Hygroscopic test; [12]) was 8.43 w/w %, the “Hygroscopic … compared with the amorphous body” value (Hygroscopic test; listed as V type crystal, sodium monohydrate) was “superior in the moisture absorption stability to the amorphous body” and the Purity stability [1] was “stable”. For the same compound, the “By-product I” value [1, 13] was 0.21, the “Decomposition product I” value [1, 13] was 0.03 and the Piperacillin [1, 13] was 99.66. For the same compound, the “By-product I” value [1, 14] was 0.33, the “Decomposition product I” value [1, 14] was 0.08 and the Piperacillin [1, 14] was 99.37. For the same compound, the “By-product I” value [1, 15] was 0.59, the “Decomposition product I” value [1, 15] was 0.26 and the Piperacillin [1, 15] was 98.62. For the same compound, the “Decomposition product I” value ([1]; Initiation of test) was “Not detected”, the “By-product I” value [1, 16] was 0.04 and the Piperacillin [1, 16] was 99.92. The “Coloration stability of exterior appearance” value [2] was “stable”, the “Color difference (ΔE)” value [2, 17] was 0.60 and the “Degree of whiteness (W)” value [2, 17] was 96.64. For the same compound, the “Degree of yellowness (YI)” value [2, 17] was 1.77, the “Color difference (ΔE)” value [2, 18] was 0.69 and the “Degree of whiteness (W)” value [2, 18] was 96.55. For the same compound, the “Degree of yellowness (YI)” value [2, 18] was 1.96, the “Color difference (ΔE)” value [2, 19] was 1.33 and the “Degree of whiteness (W)” value [2, 19] was 96.20. The “Degree of yellowness (YI)” value [2, 19] was 3.03, the “Degree of whiteness (W)” value [2, 16] was 96.45 and the “Degree of yellowness (YI)” value [2, 16] was 0.94.

For CCN1CCN(C(=O)N[C@@H](C(=O)N[C@@H]2C(=O)N3[C@@H]2SC(C)(C)[C@@H]3C(=O)O)c2ccccc2)C(=O)C1=O [Example 2, piperacillin sodium monohydrate], the Dissolution time (Dissolution test) was 50 s, the “Dissolution compared with the amorphous body” value (Dissolution test) was “dissolved in a short period of time than the amorphous body” and the “Ratio of change of weight” value (Hygroscopic test; [8]) was 1.16 w/w %. The “Ratio of change of weight” value (Hygroscopic test; [9]) was 1.54 w/w %, the “Ratio of change of weight” value (Hygroscopic test; [10]) was 3.14 w/w % and the “Ratio of change of weight” value (Hygroscopic test; [11]) was 3.98 w/w %. The “Ratio of change of weight” value (Hygroscopic test; [12]) was 5.28 w/w %, the “Hygroscopic … compared with the amorphous body” value (Hygroscopic test; listed as VI type crystal, sodium monohydrate) was “superior in the moisture absorption stability to the amorphous body” and the Purity stability [1] was “stable”. For the same compound, the “By-product I” value [1, 13] was 0.07, the “Decomposition product I” value [1, 13] was 0.01 and the Piperacillin [1, 13] was 99.82. For the same compound, the “By-product I” value [1, 14] was 0.11, the “Decomposition product I” value [1, 14] was 0.02 and the Piperacillin [1, 14] was 99.75. For the same compound, the “By-product I” value [1, 15] was 0.11, the “Decomposition product I” value [1, 15] was 0.04 and the Piperacillin [1, 15] was 99.73. For the same compound, the “Decomposition product I” value ([1]; Initiation of test) was “Not detected”, the “By-product I” value [1, 16] was 0.02 and the Piperacillin [1, 16] was 99.94. For the same compound, the “Coloration stability of exterior appearance” value [2] was “stable”, the “Color difference (ΔE)” value [2, 17] was 0.39 and the “Degree of whiteness (W)” value [2, 17] was 95.64. For the same compound, the “Degree of yellowness (YI)” value [2, 17] was 1.35, the “Color difference (ΔE)” value [2, 18] was 0.54 and the “Degree of whiteness (W)” value [2, 18] was 95.60. The “Degree of yellowness (YI)” value [2, 18] was 1.64, the “Color difference (ΔE)” value [2, 19] was 0.79 and the “Degree of whiteness (W)” value [2, 19] was 95.57. The “Degree of yellowness (YI)” value [2, 19] was 2.02, the “Degree of whiteness (W)” value [2, 16] was 95.94 and the “Degree of yellowness (YI)” value [2, 16] was 0.85. The “By-product I” value [3] was 0.15, the Piperacillin [3] was 99.81 and the “Total amount of relative substances” value [3] was 0.19. The Light exposure stability ([3]; result in words) was “stable”, the “By-product I” value [4] was 0.14 and the Piperacillin [4] was 99.73. The “Total amount of relative substances” value [4] was 0.27.
